One assay concerns the target T1, LPL:sGPIHBPI complex (Homo sapiens, UniProt P06858).
T1 sequence (P06858 28-475): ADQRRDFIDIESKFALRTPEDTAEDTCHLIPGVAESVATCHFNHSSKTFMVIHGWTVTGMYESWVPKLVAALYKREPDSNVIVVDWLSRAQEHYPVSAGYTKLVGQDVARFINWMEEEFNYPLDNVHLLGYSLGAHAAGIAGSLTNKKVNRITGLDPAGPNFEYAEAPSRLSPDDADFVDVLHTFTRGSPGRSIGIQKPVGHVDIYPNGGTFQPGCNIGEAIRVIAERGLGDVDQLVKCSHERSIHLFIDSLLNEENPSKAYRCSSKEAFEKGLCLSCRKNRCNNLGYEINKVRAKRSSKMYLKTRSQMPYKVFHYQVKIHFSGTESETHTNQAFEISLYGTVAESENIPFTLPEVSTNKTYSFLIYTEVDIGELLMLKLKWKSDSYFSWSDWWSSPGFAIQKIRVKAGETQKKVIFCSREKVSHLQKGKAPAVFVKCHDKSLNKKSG
T1 sequence (Q8IV16 21-151 partner limits assumed): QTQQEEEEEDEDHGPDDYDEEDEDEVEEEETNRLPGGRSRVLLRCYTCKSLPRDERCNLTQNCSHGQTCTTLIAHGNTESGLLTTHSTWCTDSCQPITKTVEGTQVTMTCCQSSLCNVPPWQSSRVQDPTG
The assay can be described thus: VLDL assay (LPL:sGPIHBP1 pre-incubated with ANGPTL4, VLDL substrate, Amplex Red readout). It counts as biochemical. As to conditions: read-out: VLDL qAC50. As for the experimental part: The assay was performed in black I536-well plates using purified proteins. To identify compounds that stimulate LPL activity either by directly activating LPL or by inhibiting the antagonist ANGPTL4, the LPL:sGPIHBPI complex was pre-incubated with ANGPTL4 to decrease LPL activity by 80%. After a 60 min pre-incubation, the coupled enzyme system supplemented with Amplex Red reagent was added. The enzymatic reaction was started by adding the VLDL substrate. 120 min after VLDL addition, the reaction was stopped using SDS and the fluorescence intensity was measured.
40 or 45 nl of compound solution in 100% DMSO were placed in test plate. Then LPL:sGPIHBPI was added to all wells (diluted in assay buffer to 80 nM; 1 μl/well). This was followed by an addition of ANGPTL4 to compounds and neutral controls (diluted in assay buffer to 84 nM; 1 μl/well). The assay buffer was added to stimulator control (1 μl/well). Then the plates were centrifuged and pre-incubated 60 min at RT. A NEFA (1:2 diluted in PBS) supplemented with Amplex Red (40 μM was further added to all wells (1 μl/well). The reaction was then started by adding substrate to all wells (diluted in VLDL buffer to 16 Vg/ml, 1 μl/well). The plates were further centrifuged (800 rpm for 1 my) and incubated 120 m at RT (=reaction time). The reaction was then by adding SDS to all wells (diluted in water to 2.5%, 2 μl/well) and further incubated 30 mi at RT. The fluorescence intensity (ex 540 nm/em 590 nm) was measured on a Pherastar (BMG) using 20 flashes.
Turning to `O=C(O)Cc1cccc(Cl)c1NC(=O)c1ccc(N2CCCCC2)c(NC(=O)c2nn(CC(F)(F)F)c3ccccc23)c1` [Compound 25, 2-(3-chloro-2-(4-(piperidin-1-yl)-3-(1-(2,2,2-trifluoroethyl)-1H-indazole-3-carboxamido)benzamido)phenyl) acetic acid], the EC50 is 5 µM.
The same measure, in the same setting: the value for `O=C(O)Cc1cc(F)ccc1NC(=O)c1ccc(N2CCCCC2)c(NC(=O)c2nn(CC(F)(F)F)c3ccccc23)n1` [Compound 45, 2-(5-fluoro-2-(5-(piperidin-1-yl)-6-(1-(2,2,2-trifluoroethyl)-1H-indazole-3-carboxamido)picolinamido)phenyl)acetic acid] was greater than 25 µM.
The same measure, in the same setting: the value for `O=C(O)Cc1cc(F)ccc1NC(=O)c1ccc(N2CCCCC2)c(NS(=O)(=O)c2nn(CC(F)(F)F)c3ccccc23)c1` [Compound 114, 2-(5-fluoro-2-(4-(piperidin-1-yl)-3-((1-(2,2,2-trifluoroethyl)-1H-indazole)-3-sulfonamido)benzamido)phenyl)acetic acid] was greater than 25 µM.
With `O=C(O)Cc1cc(F)ccc1NC(=O)c1ccc(N2CCCCC2)c(NC(=O)c2nn(CCN3CCOCC3)c3ccccc23)c1` [Compound 120, 2-(5-fluoro-2-(3-(1-(2-morpholinoethyl)-1H-indazole-3-carboxamido)-4-(piperidin-1-yl)benzamido)phenyl)acetic acid], the EC50 was greater than 25 µM.
Still for that read-out and setting: the value for `Cc1nc(Cn2nc(C(=O)Nc3cc(C(=O)Nc4ccc(F)cc4CC(=O)O)ccc3N3CCCCC3)c3ccccc32)no1` [Compound 125, 2-(5-fluoro-2-(3-(1-((5-methyl-1,2,4-oxadiazol-3-yl)methyl)-1H-indazole-3-carboxamido)-4-(piperidin-1-yl)benzamido)phenyl)acetic acid] was 6.4 µM.
The same measure, in the same setting: then `O=C(O)Cc1cc(F)ccc1NC(=O)c1ccc(N2CCCCC2)c(NC(=O)Nc2nn(CC(F)(F)F)c3ccccc23)c1` [Compound 129, 2-(5-fluoro-2-(4-(piperidin-1-yl)-3-(3-(1-(2,2,2-trifluoroethyl)-1H-indazol-3-yl)ureido)benzamido)phenyl)acetic acid], with 3.3 µM; and `O=C(O)Cc1cc(F)ccc1NC(=O)c1ccc(N2CCCCC2)c(NC(=O)c2nn(CC3COCCO3)c3ccccc23)c1` (stereo not drawn) [Compound 132, 2-(2-(3-(1-((1,4-dioxan-2-yl)methyl)-1H-indazole-3-carboxamido)-4-(piperidin-1-yl)benzamido)-5-fluorophenyl)acetic acid], with 7.4 µM.

The next assay has as its target T2, LPL (native bovine milk protein) inactivated by ANGPTL4 (Bos taurus, UniProt P11151).
T2 construct: from tissue; host or cells: bovine milk (LPL); E. coli (GST-ANGPTL4)
T2 sequence (P11151 29-478): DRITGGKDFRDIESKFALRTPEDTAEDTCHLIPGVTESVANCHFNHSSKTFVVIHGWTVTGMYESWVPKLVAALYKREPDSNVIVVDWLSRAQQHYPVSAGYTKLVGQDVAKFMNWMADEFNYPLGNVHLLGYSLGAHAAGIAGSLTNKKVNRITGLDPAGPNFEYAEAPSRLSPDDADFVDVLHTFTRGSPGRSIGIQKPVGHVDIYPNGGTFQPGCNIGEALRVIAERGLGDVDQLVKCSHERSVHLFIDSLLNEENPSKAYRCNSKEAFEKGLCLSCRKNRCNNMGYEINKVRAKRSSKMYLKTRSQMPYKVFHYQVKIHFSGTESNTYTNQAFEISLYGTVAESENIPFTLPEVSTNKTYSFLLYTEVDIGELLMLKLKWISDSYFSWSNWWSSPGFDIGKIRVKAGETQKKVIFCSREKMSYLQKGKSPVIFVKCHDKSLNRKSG
The experiment in a line: LPL ANGPTL4 protection assay (LPL fluorescence assay, resorufin butyrate substrate). It is filed as biochemical. The following applies: LPL activation activity, LPL 2.5 nM, ANGPTL4 20 nM. The protocol:
LPL is inactivated by angiopoietin-like 4 (ANGPTL4). Compounds of the present disclosure were for activity using the following protection assay. Briefly, the assay was performed in a black opaque 96-well microtiter plate with final volume of 100 μL using a buffer consisting of 50 mM HEPES (pH 7.2), 150 mM NaCl and 0.03% Triton X-100. Compounds were prepared as 10 mM stocks in DMSO, with subsequent serial dilutions performed in DMSO. Two microliters of test compounds were added to the microtiter plate, followed by 49-PL of LPL (native bovine milk protein affinity purified using heparin-affinity chromatography) in assay buffer. The plate contents were mixed using an orbital shaker and allowed to incubate for 5 minutes at room temperature. The enzymatic assay was initiated by the addition of a mixture of 49 μL of 50 μM resorufin butyrate (Santa Cruz #sc-208302; prepared from a 10 mM DMSO stock) and ANGPTL4 (N-terminal GST construct consisting of residues 26-164 expressed in E. coli) in assay buffer. The final concentrations of LPL and ANGPTL4 were 2.5 nM and 20 nM, respectively. The assay was allowed to proceed at 30° C. for 25 minutes with kinetic monitoring (Ex560/Em585) followed by an endpoint reading which was used for analysis.
Data was analyzed in Graphpad Prism (version 6.0, GraphPad Software, Inc., San Diego, CA) using a variable slope four parameter fit of the equation:
Y=Bottom+(Top-Bottom)/(1+10^((Log EC50−X)*HillSlope)),
where X is the concentration of test compound, Y corresponds to the amount of product expressed in relative fluorescence units, and Top and Bottom refer to the plateaus of the curve. Percent activation (protection) of test compound was calculated relative to zero effect wells (ZEW; LPL, ANGPTL4 and substrate) and maximum effect wells (MEW; LPL plus substrate): ((test well−ZEW)/(MEW−ZEW))*100.
For the molecule `O=C(O)Cc1cc(F)ccc1NC(=O)c1ccc(N2CCCCC2)c(NC(=O)c2nn(Cc3ccccc3)c3ccccc23)c1` [Compound 159, 2-(2-(3-(1-benzyl-1H-indazole-3-carboxamido)-4-(piperidin-1-yl)benzamido)-5-fluorophenyl)acetic acid], the EC50 worked out at 0.85 µM.
On the same count and under the same terms, then `CCn1nc(C(=O)Nc2cc(C(=O)Nc3ccc(F)cc3CC(=O)O)ccc2N2CCCCC2)c2ccccc21` [Compound 160, 2-(2-(3-(1-ethyl-1H-indazole-3-carboxamido)-4-(piperidin-1-yl)benzamido)-5-fluorophenyl)acetic acid], with 1.66 µM.
The same measure, in the same setting: the value for `O=C(O)Cc1ccccc1NC(=O)c1ccc(N2CCCCC2)c(NC(=O)c2cc3n(n2)CCCC3)c1` [Compound 161, 2-(2-(4-(piperidin-1-yl)-3-(4,5,6,7-tetrahydropyrazolo[1,5-a]pyridine-2-carboxamido)benzamido)phenyl)acetic acid] was 3.2 µM.
As for `CC(C)n1nc(C(=O)Nc2cc(C(=O)Nc3ccc(F)cc3CC(=O)O)ccc2N2CCCCC2)c2ccccc21` [Compound 162, 2-(5-fluoro-2-(3-(1-isopropyl-1H-indazole-3-carboxamido)-4-(piperidin-1-yl)benzamido)phenyl)acetic acid], the EC50 was determined as 3.25 µM.
Molecule `Cn1nc(C(=O)Nc2cc(C(=O)Nc3ccccc3CC(=O)O)ccc2N2CCCCC2)cc1-c1ccccc1` [Compound 163, 2-(2-(3-(1-methyl-5-phenyl-1H-pyrazole-3-carboxamido)-4-(piperidin-1-yl)benzamido)phenyl)acetic acid] yielded an EC50 of 4.13 µM.
The same measure, in the same setting: then `O=C(Nc1ccc(-c2nnn[nH]2)cc1)c1ccc(N2CCCCC2)c(NC(=O)c2nn(CC(F)(F)F)c3ccccc23)c1` [Compound 164, N-(5-((4-(1H-tetrazol-5-yl)phenyl)carbamoyl)-2-(piperidin-1-yl)phenyl)-1-(2,2,2-trifluoroethyl)-1H-indazole-3-carboxamide], with 5.16 µM; and `Cn1nc(C(=O)Nc2cc(C(=O)Nc3ccc(-c4nnn[nH]4)cc3)ccc2N2CCCCC2)c2ccc(F)cc21` [Compound 165, N-(5-((4-(1H-tetrazol-5-yl)phenyl)carbamoyl)-2-(piperidin-1-yl)phenyl)-6-fluoro-1-methyl-1H-indazole-3-carboxamide], with 7.99 µM; and `Cn1nc(C(=O)Nc2cc(C(=O)Nc3cc(-c4nnn[nH]4)ccc3F)ccc2N2CCCCC2)c2ccccc21` [Compound 166, N-(5-((2-fluoro-5-(1H-tetrazol-5-yl)phenyl)carbamoyl)-2-(piperidin-1-yl)phenyl)-1-methyl-1H-indazole-3-carboxamide], with 8.1 µM.
Turning to `Cc1ccc(NC(=O)c2cc(-n3cc4ccc(-c5nnn[nH]5)cc4n3)ccc2N2CCCCC2)cc1` [Compound 167, 5-(6-(1H-tetrazol-5-yl)-2H-indazol-2-yl)-2-(piperidin-1-yl)-N-(p-tolyl)benzamide], the EC50 amounted to 9.41 µM.
On the same count and under the same terms, the value for `Cc1ccc(NC(=O)c2cc(NCc3ccc(-c4nsc(=O)[nH]4)cc3)ccc2N2CCCCC2)cc1` [Compound 168, N-(4-methylphenyl)-5-({[4-(5-oxo-4,5-dihydro-1,2,4-thiadiazol-3-yl)phenyl]methyl}amino)-2-(piperidin-1-yl)benzamide] was 14.9 µM.
Same read-out and setting: then `Cc1ccc(NC(=O)c2cc(NCc3cc(-c4nnn[nH]4)ccc3F)ccc2N2CCCCC2)cc1` [Compound 169, 5-((2-fluoro-5-(1H-tetrazol-5-yl)benzyl)amino)-2-(piperidin-1-yl)-N-(p-tolyl)benzamide], with 6.38 µM.

The record behind these values is patent publication US20250092014A1, “COMPOUNDS AND METHODS OF ACTIVATING LIPOPROTEIN LIPASE” (Metrea Biosciences, Inc., priority 2021, published 2025).
